Experiment [1] addresses T1, Aurora-B kinase (Homo sapiens, UniProt Q96GD4).
T1 construct: 6-histidine tag; made in house; host or cells: Spodoptera frugiperda Sf21 insect cells (baculovirus)
The experiment is described as follows: In vitro Aurora-B kinase inhibition test. Type of experiment: biochemical. Conditions: recombinant Aurora-B, [γ33P]ATP, peptide substrate, 60 minutes room temperature; read-out: concentration giving 50% inhibition of enzyme activity. From the text:
(b) In Vitro Aurora-B Kinase Inhibition Test
This assay determines the ability of a test compound to inhibit serine-threonine kinase activity. DNA encoding Aurora-B may be obtained by total gene synthesis or by cloning. This DNA may then be expressed in a suitable expression system to obtain polypeptide with serine-threonine kinase activity. In the case of Aurora-B, the coding sequence was isolated from cDNA by polymerase chain reaction (PCR) and cloned into the pFastBac system in a manner similar to that described above for Aurora-A (i.e. to direct expression of a 6-histidine tagged Aurora-B protein).
For the large scale expression of Aurora-B kinase activity, Sf21 insect cells were grown at 28° C. in TC100 medium supplemented with 10% foetal calf serum (Viralex) and 0.2% F68 Pluronic (Sigma) on a Wheaton roller rig at 3 r.p.m. When the cell density reached 1.2×10^6 cells ml^−1 they were infected with plaque-pure Aurora-B recombinant virus at a multiplicity of infection of 1 and harvested 48 hours later. All subsequent purification steps were performed at 4° C. […]

Experiment [2] has as its target T2, Aurora-A kinase (Homo sapiens, UniProt O14965).
T2 construct: 6 histidine tag with spacer region and rTEV protease cleavage site (pFastBac HTc) (N); made in house; host or cells: Spodoptera frugiperda Sf21 insect cells (baculovirus)
T2 sequence (O14965 1-403): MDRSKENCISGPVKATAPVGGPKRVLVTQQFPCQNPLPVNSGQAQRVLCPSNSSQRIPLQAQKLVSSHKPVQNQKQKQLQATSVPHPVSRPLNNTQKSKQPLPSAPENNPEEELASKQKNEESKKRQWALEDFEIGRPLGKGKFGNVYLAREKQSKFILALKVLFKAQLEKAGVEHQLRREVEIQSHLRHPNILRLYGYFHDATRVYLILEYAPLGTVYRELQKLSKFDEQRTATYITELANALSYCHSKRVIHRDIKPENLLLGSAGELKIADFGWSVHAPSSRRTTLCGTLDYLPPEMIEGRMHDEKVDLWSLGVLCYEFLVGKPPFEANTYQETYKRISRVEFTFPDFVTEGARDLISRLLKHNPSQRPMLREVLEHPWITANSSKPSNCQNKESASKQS
Kind of experiment: In vitro Aurora-A kinase inhibition test. Type of experiment: biochemical.

SMILES strings stand for the structures.

T1 sequence (Q96GD4 whole entry): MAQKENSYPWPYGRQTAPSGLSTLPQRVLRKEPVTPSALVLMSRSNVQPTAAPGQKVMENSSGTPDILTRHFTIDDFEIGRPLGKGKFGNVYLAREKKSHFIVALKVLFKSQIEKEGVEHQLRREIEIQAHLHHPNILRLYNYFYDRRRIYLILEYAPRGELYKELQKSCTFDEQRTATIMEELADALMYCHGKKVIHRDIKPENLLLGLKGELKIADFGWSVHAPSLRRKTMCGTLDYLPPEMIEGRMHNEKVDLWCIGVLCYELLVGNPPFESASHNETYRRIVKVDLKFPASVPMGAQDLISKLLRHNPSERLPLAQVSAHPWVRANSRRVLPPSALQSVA

`COc1cc2c(Nc3cn(CC(=O)Nc4cccc(F)c4)nn3)ncnc2cc1OCCCCl` [Compound 1, 2-(4-{[7-(3-chloropropoxy)-6-methoxyguinazolin-4-yl]amino}-1H-1,2,3-triazol-1-yl)-N-(3-fluorophenyl)acetamide]: the IC50 in experiment [1] is 100 nM; in experiment [2], 900 nM.

On to `CCCN(CCO)CCCOc1cc2ncnc(Nc3cn(CC(=O)Nc4cccc(F)c4)nn3)c2cc1OC` [Compound 4, N-(3-fluorophenyl)-2-{4-[(7-{3-[(2-hydroxyethyl)(propyl)amino]propoxy}-6-methoxyquinazolin-4-yl)amino]-1H-1,2,3-triazol-1-yl}acetamide], for which the IC50 in experiment [1] came to 100 nM; in experiment [2] it was 500 nM.

The values are drawn from US20060178382A1, “Chinazoline derivatives as aurora kinase inhibitors” (AstraZeneca AB, priority 2003, published 2006).
